Measurements published in ChEMBL document CHEMBL1201862, “PubChem BioAssay data set” (2004).
Activity calls are given as the source filed them.

How the values were obtained:
[1] = target: E3 ubiquitin-protein ligase Mdm2 (Homo sapiens, UniProt Q00987); experiment: MDM2-luc reporter signal enhancers, multi-concentration potency testing, MDM2 ubiquitin-protein ligase inhibitor program, whole-cell format, luminescence detection, 384-well microplate (AID 1394); format: functional;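 also: MDM2 E3 inhibitors raise luminescence so EC50 is for signal enhancement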
[2] = target: G-protein coupled receptor 55 (Homo sapiens, UniProt Q9Y2T6); experiment: inhibition of LPI-stimulated GPR55 beta-arrestin translocation – imaging, U2OS, beta-arrestin-GFP, LPI agonist, primary screen (AID 2013); format: functional;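 also: antagonist potency measured as reduced agonist-driven arrestin aggregation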
Large T antigen = Large T antigen (Simian virus 40, UniProt P03070); format: functional, Betapolyomavirus macacae;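 also: Confirmatory-stage PubChem screen for compounds that inhibit SV40 T antigen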
[3] = ATP-based viability loss in HEK293T cells – cell-based, CellTiter-Glo luminescence, dry powder, set 2, cytotoxicity control, dose response (AID 720595); format: functional; conditions: HEK293
[4] = ATP-based viability loss in HeLa cells – cell-based, CellTiter-Glo luminescence, dry powder, set 2, cytotoxicity control, dose response (AID 720593); format: functional
[5] = target: T1, Mannose-6-phosphate isomerase (Homo sapiens, UniProt P34949); experiment: MPI inhibition at elevated mannose 6-phosphate – biochemical, fluorescence intensity, high mannose 6-phosphate, primary screen (AID 1220)
T1 sequence (P34949 whole entry): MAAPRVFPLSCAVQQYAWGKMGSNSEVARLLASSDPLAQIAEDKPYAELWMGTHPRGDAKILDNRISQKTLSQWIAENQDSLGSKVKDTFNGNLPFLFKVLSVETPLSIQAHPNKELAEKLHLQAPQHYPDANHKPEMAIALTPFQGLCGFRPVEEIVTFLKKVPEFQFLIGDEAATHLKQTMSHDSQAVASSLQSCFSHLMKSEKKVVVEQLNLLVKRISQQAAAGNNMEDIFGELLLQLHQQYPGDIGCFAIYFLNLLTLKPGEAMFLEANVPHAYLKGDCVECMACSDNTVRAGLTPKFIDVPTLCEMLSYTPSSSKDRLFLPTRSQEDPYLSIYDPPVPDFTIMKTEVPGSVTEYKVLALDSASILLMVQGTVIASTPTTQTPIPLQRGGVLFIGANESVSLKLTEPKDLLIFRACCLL

Vero = experiment: viability of Vero cells under compound – cytotoxicity control for flavivirus capping enzyme inhibitors (AID 588742); format: functional; conditions: Chlorocebus sabaeus
[6] = HIV-1 Vif–A3G interaction blockers – biochemical, TR-FRET, GST-Vif 1-94, biotin-A3G peptide, dose response retest, primary screen (AID 1117319); format: functional;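 also: TR-FRET signal of purified GST-Vif binding a biotinylated A3G peptide; inhibitors lower the FRET signal by blocking Vif and A3G binding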
[7] = target: T2, Low molecular weight phosphotyrosine protein phosphatase (Homo sapiens, UniProt P24666); experiment: inhibition of LMPTP-A enzymatic activity – biochemical, OMFP substrate, fluorescence intensity, set 2, dose response (AID 743307); format: functional
T2 sequence (P24666 whole entry): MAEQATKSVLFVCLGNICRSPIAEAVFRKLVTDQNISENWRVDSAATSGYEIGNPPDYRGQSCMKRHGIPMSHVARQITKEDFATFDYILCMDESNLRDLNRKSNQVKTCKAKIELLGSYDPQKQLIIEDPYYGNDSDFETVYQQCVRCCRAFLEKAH

[8] = target: T2, Low molecular weight phosphotyrosine protein phosphatase; experiment: inhibition of human LMPTP enzyme activity – biochemical, absorbance, pNPP substrate, LMPTP-A isoform, set 2, orthogonal assay, dose response (AID 743308); format: functional
Transthyretin = Transthyretin (Homo sapiens, UniProt P02766); experiment: Luminescence-based cell-based high throughput dose response assay to identify activators of Transthyretin (TTR) transcription.; format: functional

Large T antigen, sequence (P03070 whole entry): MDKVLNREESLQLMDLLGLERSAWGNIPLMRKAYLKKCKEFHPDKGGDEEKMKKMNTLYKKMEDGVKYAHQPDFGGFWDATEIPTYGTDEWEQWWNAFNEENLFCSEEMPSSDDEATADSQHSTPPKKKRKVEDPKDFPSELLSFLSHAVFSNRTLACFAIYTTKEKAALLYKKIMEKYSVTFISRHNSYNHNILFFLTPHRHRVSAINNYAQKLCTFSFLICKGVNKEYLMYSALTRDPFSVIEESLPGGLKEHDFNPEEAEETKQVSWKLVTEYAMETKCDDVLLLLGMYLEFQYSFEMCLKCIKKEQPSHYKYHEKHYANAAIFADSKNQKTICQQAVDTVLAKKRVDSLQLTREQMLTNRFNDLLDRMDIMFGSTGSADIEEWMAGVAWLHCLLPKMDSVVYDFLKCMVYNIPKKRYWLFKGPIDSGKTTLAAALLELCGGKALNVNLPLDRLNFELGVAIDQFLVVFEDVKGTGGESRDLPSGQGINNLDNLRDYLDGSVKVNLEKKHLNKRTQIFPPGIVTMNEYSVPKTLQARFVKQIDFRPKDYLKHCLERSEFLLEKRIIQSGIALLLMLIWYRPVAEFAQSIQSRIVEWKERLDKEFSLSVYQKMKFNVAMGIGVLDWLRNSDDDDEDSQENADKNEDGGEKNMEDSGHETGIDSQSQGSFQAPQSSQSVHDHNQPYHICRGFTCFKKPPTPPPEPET
E3 ubiquitin-protein ligase Mdm2, sequence (Q00987 whole entry): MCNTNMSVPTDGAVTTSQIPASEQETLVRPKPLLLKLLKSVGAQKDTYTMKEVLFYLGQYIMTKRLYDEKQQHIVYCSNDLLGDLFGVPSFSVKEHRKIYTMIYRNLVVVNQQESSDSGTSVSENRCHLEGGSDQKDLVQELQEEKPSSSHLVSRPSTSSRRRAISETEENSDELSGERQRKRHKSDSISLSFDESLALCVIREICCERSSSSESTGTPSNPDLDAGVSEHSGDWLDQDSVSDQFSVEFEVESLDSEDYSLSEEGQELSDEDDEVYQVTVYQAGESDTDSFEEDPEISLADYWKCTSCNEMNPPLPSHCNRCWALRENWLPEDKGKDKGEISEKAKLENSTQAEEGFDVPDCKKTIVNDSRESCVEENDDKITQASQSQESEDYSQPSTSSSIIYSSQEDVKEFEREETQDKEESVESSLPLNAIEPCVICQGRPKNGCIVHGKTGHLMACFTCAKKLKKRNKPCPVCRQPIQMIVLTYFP
G-protein coupled receptor 55, sequence (Q9Y2T6 whole entry): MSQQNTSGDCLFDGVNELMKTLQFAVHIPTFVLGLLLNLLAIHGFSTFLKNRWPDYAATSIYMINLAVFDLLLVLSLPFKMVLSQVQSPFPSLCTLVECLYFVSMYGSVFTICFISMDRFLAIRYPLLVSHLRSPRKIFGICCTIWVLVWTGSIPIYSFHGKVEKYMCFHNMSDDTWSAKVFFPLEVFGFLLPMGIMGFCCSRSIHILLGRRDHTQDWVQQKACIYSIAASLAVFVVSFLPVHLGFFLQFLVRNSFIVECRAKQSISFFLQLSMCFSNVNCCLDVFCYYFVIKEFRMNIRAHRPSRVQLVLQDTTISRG

In the case of `CC1=NN(c2cccc(C(=O)O)c2)C(=O)/C1=C\C=C/c1ccccc1`, the EC50 [1] is reported as 4.82 µM (active), the IC50 [2] is reported as 3.3 µM (active) and the IC50 (Large T antigen) is reported as 20.4 µM (active).

For `O=C(Cc1ccccc1)NC(c1ccco1)c1ccc2cccnc2c1O` (stereo unspecified), the AC50 [3] was 2.56 µM (active) and the AC50 [4] was 18.1 µM (active).

For `CCc1cccc(C)c1N=C(S)NCC1CCN(c2ccc(OC)cc2)C1` (stereo unspecified), the IC50 [5] was > 50 µM (not active) and the CC50 (Vero) was > 40 µM (active).

For `CC(C)(C)CN1CCNC(=O)C1CC(=O)NCCc1ccccc1C(F)(F)F` (stereo unspecified), the IC50 [6] was > 100 µM (active).

For `c1ccc(-c2nc(N3CCOCC3)c3ccccc3n2)cc1`, the IC50 [7] was > 80 µM (inactive) and the IC50 [8] was > 80 µM (inactive).

For `Cc1ccc([C@H]2C[C@@H](O)[C@H](n3cc(-c4ccc(F)cc4)nn3)CN2C(=O)c2cccs2)cc1`, the EC50 (Transthyretin) was > 167 µM (inactive).
